In patent US20250059232A1, “PENTAPEPTIDE AND USE THEREOF” (ENSOL BIOSCIENCES INC., priority 2021, published 2025):

Experiments:
4T1 cells = experiment: Syngeneic model implanted with paclitaxel-resistant 4T1 cells: tumor volume, Western blot of cleaved PARP and LC3II; assay type: in vivo, mouse; conditions: paclitaxel only
Method: Cell death and autophagy marker changes were determined by the Western blot method, using a syngeneic model implanted with 4T1 cells (American Type Culture Collection (ATCC)), which are mouse triple negative breast cancer tumor cells resistant to paclitaxel. The drug administration was started, when the tumor volume was reached to 70 mm^3 after a fat pad of Balb/c mice (6 weeks old, female) was transplanted with 4T1 cells in a concentration of 1×10^6 cells/head. For Week 1, paclitaxel 20 mg/kg was administered on Day 1 and Day 2, and the peptide (10, 100 mg/kg) of Example 1 was co-administered on Day 3, Day 5, and Day 7. In addition, the same process was performed for each of Week 2, and Week 3 (n=3). The tumor volumes were measured daily because the tumors grew very quickly. The changes in cleaved PARP, which is a cell death marker, and the changes in LC3II, which is an autophagy marker, in tumors were analyzed after necropsy on the day after the end of the 3-week administration, by a Western blot test.
FIG. 5 is a graph illustrating the results of tumor volume measurements according to the number of days after treatment in animal experimentation. In FIG. 5, the x-axis represents the number of days elapsed after treatment and the y-axis represents the tumor volume change (mm^3).
In addition, the changes in cleaved PARP, which is a cell death marker, are shown in FIG. 6, and the changes in LC3II, which is an autophagy marker, are shown in FIG. 7. FIG. 6 is a graph showing the changes in expression of cleaved PARP, which is a cell death marker, for each treatment group in animal experimentation, and FIG. 7 is a graph showing the changes in expression of LC3II, which is an autophagy marker, for each treatment group in animal experimentation.

MDA-MB-231 [1] = experiment: MDA-MB-231 fat pad xenograft in athymic nude mouse: tumor volume and weight; assay type: in vivo, human; conditions: paclitaxel only
Method: 5×10^6 cells/head of the human triple negative breast cancer cell line MDA-MB-231 (American Type Culture Collection (ATCC)) were mixed with Matrigel and PBS (1:1). 100 ul of the mixture was injected into the right third fat pad of 7-week-old female athymic nude mouse. After the transplantation, drug administration started from an average tumor size of 80 mm^3. Paclitaxel 20 mg/kg was administered on Day 0 and on Day 1. That is, the paclitaxel 20 mg/kg was administered a total of two times. Then, the peptide of Example 1 was administered in a dose of 100 mg/kg on Day 2, Day 4, and Day 6. That is, the peptide of Example 1 was administered a total of three times. Tumor volumes were measured 3 times a week for 3 weeks after administration of the first dose. Tumor weights were measured by necropsy after the end of the experiment. For each group, ten mice were used.
Tumor volume changes over time for each group are shown in FIG. 8, and tumor weight on the eighteenth day after the administration of the first dose for each group is shown in FIG. 9. FIG. 8 is a graph illustrating the changes in tumor volume over time after sample administration in animal experimentation. In FIG. 8, the x-axis represents the number of days elapsed after the start of administration and the y-axis represents the tumor volume change (mm^3). FIG. 9 is a graph illustrating a tumor weight for each test group in animal experimentation. In FIG. 9, the x-axis represents test groups and the y-axis represents tumor weights (mg).

MDA-MB-231 [2] = experiment: MDA-MB-231 xenograft in BalB/c nude mouse: survival rate; assay type: in vivo; conditions: paclitaxel only
Method: To investigate survival rates of the paclitaxel-only administration group and the group co-administered with paclitaxel and the peptide of Example 1, experiments described below were performed. 5×10^6 cells/head of the human triple negative breast cancer cell line MDA-MB-231 were mixed with Matrigel and PBS (1:1). 100 ul of the mixture was injected into the right third fat pad of 7-week-old female BalB/c nude mouse. After the transplantation, drug administration started from an average tumor size of 70 mm^3. Paclitaxel 20 mg/kg was administered once weekly, and the peptide 100 mg/kg of Example 1 was administered subcutaneously 3 times weekly at 48-hour intervals, 48 hours after the paclitaxel administration. Each test group was administered for 12 weeks and animal survival was observed daily. FIG. 10 is a graph illustrating survival rates over time after sample administration in animal experimentation. In FIG. 10, the x-axis represents the elapsed time (days) after administration and the y-axis represents survival rates (%). […] In the case of the group co-administered with the peptide of Example 1, the first deceased mouse occurred on Day 60 of administration.

[3] = Stability test: HPLC relative purity of peptide dissolved in buffer, by pH and temperature; assay type: physicochemical
Method: For Example 1 and Comparative Example 1, stability tests according to pH for each temperature were performed.
Stability tests for each peptide were performed by liquid chromatography purity analysis for each temperature and each pH according to analysis timing (initial, 24 hours, 130 hours). […] Samples were analyzed by injecting 20 ul of each sample with an auto-sample injector, and the analysis column was Inspire C18 (4.6×250 mm, […], 12 nm) manufactured by Dikma. The analysis temperature was 40° C., and a UV wavelength of 215 nm was used.
On the basis of the HPLC analysis results, relative purity was calculated for Comparative Example 1 and Example 1 for each storage condition. The relative purity is the percentage of measured purity changing according to the storage period, with the initial purity being set to 100% for each sample. FIGS. 1 and 2 are graphs showing the results of stability tests for Example and Comparative Example stored at a temperature of 25° C., in which FIG. 1 is a graph of a test result for 24 hours of storage, and FIG. 2 is a graph of a test result for 130 hours of storage. FIGS. 3 and 4 are graphs showing the results of stability tests for Example and Comparative Example stored at 40° C., in which FIG. 3 is a graph of a test result for 24 hours of storage, and FIG. 4 is a graph of a test result for 130 hours of storage. In each graph, the x-axis represents the test group by pH and the y-axis represents the relative purity […].

[4] = eighteenth day after first dose

## CC(=O)O[C@H]1C(=O)[C@@]2(C)[C@H]([C@H](OC(=O)c3ccccc3)[C@]3(O)C[C@H](OC(=O)[C@H](O)[C@@H](NC(=O)c4ccccc4)c4ccccc4)C(C)=C1C3(C)C)[C@]1(OC(C)=O)CO[C@@H]1C[C@@H]2O [paclitaxel, reference compound]
4T1 cells; 20 mg/kg, Balb/c mice
  Reduction in tumor volume compared to the control group: insignificant reduction in tumor volume
4T1 cells; Western blot after 3-week administration
  Increase in LC3II expression level in tumor compared to control group: 2.4 fold
MDA-MB-231 [1]; 20 mg/kg Day 0 and Day 1, ten mice
  CR (mice in which the tumor disappeared): 10%
MDA-MB-231 [1]; [4]
  Reduction in tumor volume compared to control group: 33%
  Reduction in tumor weight compared to control group: 34.5%
MDA-MB-231 [1]; one mouse
  Day on which the tumor disappeared: 16 days
MDA-MB-231 [2]; 20 mg/kg once weekly
  Day of administration on which the first deceased mouse occurred: 21 days
MDA-MB-231 [2]; 12 weeks
  Survival rate after the end of the experiment: 30%

## QLHLD [Comparative Example 1, reference compound]
[3]; liquid state, pH 2-9, 25 and 40° C., up to 130 hours
  Stability (summary in words): in some cases, the samples were not stable
[3]; pH 2, 25 ± 2° C., RH 60 ± 5%, storage 0 hours (initial set to 100%)
  Relative purity: 100.0%
[3]; pH 2, 25 ± 2° C., RH 60 ± 5%, storage 24 hours
  Relative purity: 79.0%
[3]; pH 2, 25 ± 2° C., RH 60 ± 5%, storage 130 hours
  Relative purity: 25.0%
[3]; pH 2, 40 ± 2° C., RH 75 ± 5%, storage 0 hours (initial set to 100%)
  Relative purity: 100.0%
[3]; pH 2, 40 ± 2° C., RH 75 ± 5%, storage 24 hours
  Relative purity: 27.6%
[3]; pH 2, 40 ± 2° C., RH 75 ± 5%, storage 130 hours
  Relative purity: 0.3%
[3]; pH 5, 25 ± 2° C., RH 60 ± 5%, storage 0 hours (initial set to 100%)
  Relative purity: 100.0%
[3]; pH 5, 25 ± 2° C., RH 60 ± 5%, storage 24 hours
  Relative purity: 77.9%
[3]; pH 5, 25 ± 2° C., RH 60 ± 5%, storage 130 hours
  Relative purity: 21.7%
[3]; pH 5, 40 ± 2° C., RH 75 ± 5%, storage 0 hours (initial set to 100%)
  Relative purity: 100.0%
[3]; pH 5, 40 ± 2° C., RH 75 ± 5%, storage 24 hours
  Relative purity: 21.8%
[3]; pH 5, 40 ± 2° C., RH 75 ± 5%, storage 130 hours
  Relative purity: 0.1%
[3]; pH 7, 25 ± 2° C., RH 60 ± 5%, storage 0 hours (initial set to 100%)
  Relative purity: 100.0%
[3]; pH 7, 25 ± 2° C., RH 60 ± 5%, storage 24 hours
  Relative purity: 28.5%
[3]; pH 7, 25 ± 2° C., RH 60 ± 5%, storage 130 hours
  Relative purity: 0.1%
[3]; pH 7, 40 ± 2° C., RH 75 ± 5%, storage 0 hours (initial set to 100%)
  Relative purity: 100.0%
[3]; pH 7, 40 ± 2° C., RH 75 ± 5%, storage 24 hours
  Relative purity: 0.2%
[3]; pH 7, 40 ± 2° C., RH 75 ± 5%, storage 130 hours
  Relative purity: 0.0%
[3]; pH 9, 25 ± 2° C., RH 60 ± 5%, storage 0 hours (initial set to 100%)
  Relative purity: 100.0%
[3]; pH 9, 25 ± 2° C., RH 60 ± 5%, storage 24 hours
  Relative purity: 50.2%
[3]; pH 9, 25 ± 2° C., RH 60 ± 5%, storage 130 hours
  Relative purity: 2.4%
[3]; pH 9, 40 ± 2° C., RH 75 ± 5%, storage 0 hours (initial set to 100%)
  Relative purity: 100.0%
[3]; pH 9, 40 ± 2° C., RH 75 ± 5%, storage 24 hours
  Relative purity: 8.5%
[3]; pH 9, 40 ± 2° C., RH 75 ± 5%, storage 130 hours
  Relative purity: 0.0%
